Results taken from ChEMBL document CHEMBL1155344, “Synthesis of some new 1,2,4-triazoles starting from isonicotinic acid hydrazide and evaluation of their antimicrobial activities” (2009).
Active and inactive are the calls of the source. The rule behind the calls is not given here.

Columns and labels:
Escherichia coli [1] = test: Antimicrobial activity against Escherichia coli ATCC 25922 after 18 hrs by well diffusion method; type: functional
[2] = test system: Yersinia pseudotuberculosis; test: Antimicrobial activity against Yersinia pseudotuberculosis ATCC 911after 18 hrs by well diffusion method; type: functional
Pseudomonas aeruginosa [3] = test: Antimicrobial activity against Pseudomonas aeruginosa ATCC 27853 after 18 hrs by well diffusion method; type: functional
Enterococcus faecalis [4] = test: Antimicrobial activity against Enterococcus faecalis ATCC 29212 after 18 hrs by well diffusion method; type: functional
Staphylococcus aureus [5] = test: Antimicrobial activity against Staphylococcus aureus ATCC 25923 after 18 hrs by well diffusion method; type: functional
Bacillus cereus [6] = test: Antimicrobial activity against Bacillus cereus 702 Roma after 18 hrs by well diffusion method; type: functional
Candida tropicalis [7] = test: Antimicrobial activity against Candida tropicalis ATCC 13803 after 18 hrs by well diffusion method; type: functional
Candida albicans [8] = test: Antimicrobial activity against Candida albicans ATCC 60193 after 18 hrs by well diffusion method; type: functional
Escherichia coli [9] = test: Antimicrobial activity against Escherichia coli ATCC 25922 at 5 ug after 18 hrs by well diffusion method; type: functional, organism-based
[10] = test system: Yersinia pseudotuberculosis; test: Antimicrobial activity against Yersinia pseudotuberculosis ATCC 911 at 5 ug after 18 hrs by well diffusion method; type: functional, organism-based
Pseudomonas aeruginosa [11] = test: Antimicrobial activity against Pseudomonas aeruginosa ATCC 27853 at 5 ug after 18 hrs by well diffusion method; type: functional, organism-based
Enterococcus faecalis [12] = test: Antimicrobial activity against Enterococcus faecalis ATCC 29212 at 5 ug after 18 hrs by well diffusion method; type: functional, organism-based
Staphylococcus aureus [13] = test: Antimicrobial activity against Staphylococcus aureus ATCC 25923 at 5 ug after 18 hrs by well diffusion method; type: functional, organism-based
Bacillus cereus [14] = test: Antimicrobial activity against Bacillus cereus 702 Roma at 5 ug after 18 hrs by well diffusion method; type: functional, organism-based
Candida tropicalis [15] = test: Antimicrobial activity against Candida tropicalis ATCC 13803 at 5 ug after 18 hrs by well diffusion method; type: functional; conditions: ATCC 13803, 18 h, read-out: IZ
Candida albicans [16] = test: Antimicrobial activity against Candida albicans ATCC 60193 at 5 ug after 18 hrs by well diffusion method; type: functional; conditions: ATCC 60193, 18 h, read-out: IZ
Escherichia coli [17] = test: Antimicrobial activity against Escherichia coli ATCC 25922 at 10 ug after 18 hrs by well diffusion method; type: functional; conditions: ATCC 25922, 18 h, read-out: IZ
[18] = test system: Yersinia pseudotuberculosis; test: Antimicrobial activity against Yersinia pseudotuberculosis ATCC 911 at 10 ug after 18 hrs by well diffusion method; type: functional; conditions: ATCC 911, 18 h, read-out: IZ
Pseudomonas aeruginosa [19] = test: Antimicrobial activity against Pseudomonas aeruginosa ATCC 27853 at 10 ug after 18 hrs by well diffusion method; type: functional; conditions: ATCC 27853, 18 h, read-out: IZ
Enterococcus faecalis [20] = test: Antimicrobial activity against Enterococcus faecalis ATCC 29212 at 10 ug after 18 hrs by well diffusion method; type: functional; conditions: ATCC 29212, 18 h, read-out: IZ
Staphylococcus aureus [21] = test: Antimicrobial activity against Staphylococcus aureus ATCC 25923 at 10 ug after 18 hrs by well diffusion method; type: functional; conditions: ATCC 25923, 18 h, read-out: IZ
Bacillus cereus [22] = test: Antimicrobial activity against Bacillus cereus 702 Roma at 10 ug after 18 hrs by well diffusion method; type: functional; conditions: read-out: IZ
Candida tropicalis [23] = test: Antimicrobial activity against Candida tropicalis ATCC 13803 at 10 ug after 18 hrs by well diffusion method; type: functional, organism-based
Candida albicans [24] = test: Antimicrobial activity against Candida albicans ATCC 60193 at 10 ug after 18 hrs by well diffusion method; type: functional, organism-based

| Compound | inhibition zone (IZ) (Escherichia coli [1]) | inhibition zone (IZ) [2] | inhibition zone (IZ) (Pseudomonas aeruginosa [3]) | inhibition zone (IZ) (Enterococcus faecalis [4]) | inhibition zone (IZ) (Staphylococcus aureus [5]) | inhibition zone (IZ) (Bacillus cereus [6]) | inhibition zone (IZ) (Candida tropicalis [7]) | inhibition zone (IZ) (Candida albicans [8]) | also measured |
| --- | --- | --- | --- | --- | --- | --- | --- | --- | --- |
| CN1CCN(Cn2nc(-c3ccncc3)n(/N=C/c3ccc(F)cc3)c2=S)CC1 | inactive | inactive | inactive | inactive | inactive | inactive | inactive | inactive |  |
| Nn1c(-c2ccncc2)nn(CNCCN2CCOCC2)c1=S | inactive | inactive | inactive | inactive | inactive | inactive | inactive | inactive |  |
| S=c1[nH]nc(-c2ccncc2)n1/N=C/c1c[nH]c2ccccc12 | inactive | inactive | inactive | inactive | inactive | inactive | inactive | inactive |  |
| CCSc1nnc(-c2ccncc2)n1N | 30 mm |  | 25 mm | 25 mm | 25 mm | 20 mm | 8 mm | 8 mm |  |
| OC(Cn1cncn1)(Cn1cncn1)c1ccc(F)cc1F [FLUCONAZOLE] |  |  |  |  |  |  |  |  | inhibition zone (IZ) (Escherichia coli [9]): inactive; inhibition zone (IZ) [10]: inactive; inhibition zone (IZ) (Pseudomonas aeruginosa [11]): inactive; inhibition zone (IZ) (Enterococcus faecalis [12]): inactive; inhibition zone (IZ) (Staphylococcus aureus [13]): inactive; inhibition zone (IZ) (Bacillus cereus [14]): inactive; zone of inhibition at 5 µg/disc (Candida tropicalis [15]): 25 mm; zone of inhibition at 5 µg/disc (Candida albicans [16]): 25 mm |
| S=c1[nH]nc(-c2ccncc2)o1 | inactive | inactive | inactive | inactive | 10 mm | inactive | 30 mm | 25 mm |  |
| Nn1c(S)nnc1-c1ccncc1 | 34 mm | 30 mm | 42 mm | 24 mm | 34 mm | 20 mm | inactive | inactive |  |
| CCSc1nnc(-c2ccncc2)o1 | 30 mm | 22 mm | 25 mm | 25 mm | 25 mm | 18 mm | 7 mm | 7 mm |  |
| CN1CCN(Cn2nc(-c3ccncc3)oc2=S)CC1 | 23 mm | 15 mm | 28 mm | 17 mm | 17 mm | 17 mm | inactive | inactive |  |
| S=c1oc(-c2ccncc2)nn1CNCCN1CCOCC1 | 13 mm | 13 mm | 13 mm | 15 mm | 14 mm | 14 mm | inactive | inactive |  |
| Nn1c(-c2ccncc2)nn(CN2CCOCC2)c1=S | 20 mm | 13 mm | inactive | inactive | inactive | inactive | inactive | inactive |  |
| Fc1ccc(/C=N/n2c(-c3ccncc3)n[nH]c2=S)cc1 | inactive | inactive | inactive | inactive | inactive | 7 mm | 8 mm | 8 mm |  |
| CC1(C)S[C@@H]2[C@H](NC(=O)[C@H](N)c3ccccc3)C(=O)N2[C@H]1C(=O)O [AMPICILLIN] |  |  |  |  |  |  |  |  | zone of inhibition at 10 µg/disc (Escherichia coli [17]): 10 mm; zone of inhibition at 10 µg/disc [18]: 18 mm; zone of inhibition at 10 µg/disc (Pseudomonas aeruginosa [19]): 18 mm; zone of inhibition at 10 µg/disc (Enterococcus faecalis [20]): 10 mm; zone of inhibition at 10 µg/disc (Staphylococcus aureus [21]): 35 mm; zone of inhibition at 10 µg/disc (Bacillus cereus [22]): 15 mm; inhibition zone (IZ) (Candida tropicalis [23]): inactive; inhibition zone (IZ) (Candida albicans [24]): inactive |
| CN1CCN(Cn2nc(-c3ccncc3)n(N)c2=S)CC1 | 30 mm | 24 mm | 35 mm | 25 mm | 28 mm | 22 mm | inactive | inactive |  |
